{
  "source": "patent US11980633B2",
  "about": "“Method for treating cancer using a combination of DNA-damaging agents and DNA-PK inhibitors” (Vertex Pharmaceuticals Incorporated, priority 2016, dated 2024)",
  "system": "pKAP1 and pH2AX levels in MDA-MB-468 breast cancer cells",
  "test": "pKAP1 and pH2AX immunoblot, doxorubicin pulse (wash-out) with Compound B-2 in MDA-MB-468 cells",
  "assay_type": "cell-based, human",
  "settings": "1 μM Compound B-2 + 500 nM doxorubicin pulse; beginning at 1 h doxorubicin exposure, harvested at 8 h",
  "procedure": "Materials and Methods. The human cancer cell lines A549 (CCL-185), DU4475 (HTB-123), MDA-MB-436 (HTB-130), and MDA-MB-468 (HTB-132) were obtained from American Type Culture Collection (ATCC; Manassas, VA). A 10 mM stock solution of Compound B-1 or Compound B-2 was prepared in DMSO and stored at −20° C. Etoposide and doxorubicin were purchased from Sigma-Aldrich (St. Louis, MO).\nThe A549 human lung cancer cell line was purchased from ATCC and was cultured in DMEM supplemented with 10% fetal bovine serum, 1× non-essential amino acids and 1× Penicillin/Streptomycin (complete medium). Cells were maintained at a subconfluent state by passaging every 2-3 days. Human breast cancer cells lines DU4475, MDA-MB-436, and MDA-MB-468 were purchased from ATCC and cultured in DMEM supplemented with 10% fetal bovine serum, 1× Glutamax and Penicillin/Streptomycin. Cells were maintained at a subconfluent state by passaging every 2-3 days. […]\nIn order to determine the effect of a pulse of doxorubicin in combination with a DNA-PK inhibitor on pKAP1 and pH2AX levels, which would more closely simulate an in vivo administration of doxorubicin, MDA-MB-468 breast cancer cells were pre-incubated with 1 μM Compound B-2 for 15 min, followed by addition of 500 nM doxorubicin. […] Cells were harvested 8 h from initial doxorubicin exposure, and analyzed for levels of pKAP1 and pH2AX by immunoblotting. […]",
  "data": [
    {"smiles": "[2H]c1nc(C)nc([2H])c1-c1cc(NC[C@@H](C)c2cccc3c(C(=O)NC)ccnc23)ncn1", "note": "[Compound B-2]", "values": [
      {"measurement": "pKAP1 and pH2AX levels vs doxorubicin alone", "result": "enhanced levels"}
    ]}
  ]
}
